Key:
Type in all cases: in vivo
[1] = test system: ducksalad (Heteranthera limosa); assay: Test B flooded paddy test; conditions: for Plant response rating, Flood, Ducksalad: 250 g ai/ha, flooded paddy test, visual rating on 0 to 100 scale (0 no effect, 100 complete control) after 13 to 15 days; for Plant response rating, Ducksalad: Flood (flooded paddy test), 13 to 15 days; for Ducksalad plant response rating: Flood, 31 g ai/ha, scale 0 to 100 (0 no effect, 100 complete control)
In short: (§1)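 Ratings are visual, 0–100 (100 = complete control), taken versus untreated controls 13 to 15 days after treatment in the greenhouse. Compound went straight into paddy water held 3 cm above soil, applied to 2-leaf-stage plants of four species.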

[2] = test system: rice (Oryza sativa); assay: Test B flooded paddy test; conditions: for Plant response rating, Flood, Rice: 250 g ai/ha, flooded paddy test, visual rating on 0 to 100 scale (0 no effect, 100 complete control) after 13 to 15 days; for Plant response rating, Rice: Flood (flooded paddy test), 13 to 15 days; for Rice plant response rating: Flood, 31 g ai/ha, scale 0 to 100 (0 no effect, 100 complete control)
In short: as §1

[3] = test system: umbrella sedge (Cyperus difformis); assay: Test B flooded paddy test; conditions: for Plant response rating, Flood, Sedge, Umbrella: 250 g ai/ha, flooded paddy test, visual rating on 0 to 100 scale (0 no effect, 100 complete control) after 13 to 15 days; for Plant response rating, Sedge, Umbrella: Flood (flooded paddy test), 13 to 15 days; for Sedge, Umbrella plant response rating: Flood, 31 g ai/ha, scale 0 to 100 (0 no effect, 100 complete control)
In short: as §1

[4] = test system: barnyardgrass (Echinochloa crus-galli); assay: Test B flooded paddy test; conditions: for Plant response rating, Flood, Barnyardgrass: 250 g ai/ha, flooded paddy test, visual rating on 0 to 100 scale (0 no effect, 100 complete control) after 13 to 15 days; for Plant response rating, Barnyardgrass: Flood (flooded paddy test), 13 to 15 days; for Barnyardgrass plant response rating: Flood, 31 g ai/ha, scale 0 to 100 (0 no effect, 100 complete control)
In short: as §1

[5] = test system: corn (Zea mays); assay: Test A pre-/postemergence plant response
Excerpt: (§2) Seeds of barnyardgrass (Echinochloa crus-galli), large crabgrass (Digitaria sanguinalis), giant foxtail (Setaria faberii), morningglory (Ipomoea spp.), pigweed (Amaranthus retroflexus), velvetleaf (Abutilon theophrasti), wheat (Triticum aestivum) and corn (Zea mays) were planted into a blend of loam soil and sand and treated preemergence with a directed soil spray using test chemicals formulated in a non-phytotoxic solvent mixture which included a surfactant. At the same time these species were also treated with postemergence applications of test compounds formulated in the same manner.
(§3) Plants ranged in height from two to ten cm and were in the one- to two-leaf stage for the postemergence treatment. Treated plants and untreated controls were maintained in a greenhouse for approximately ten days, after which time all treated plants were compared to untreated controls and visually evaluated for injury. Plant response ratings, summarized in Table A, are based on a 0 to 100 scale where 0 is no effect and 100 is complete control. A dash (-) response means no test result.

[6] = test system: giant foxtail (Setaria faberii); assay: Test A pre-/postemergence plant response
Excerpt: as §2, §3

[7] = test system: pigweed (Amaranthus retroflexus); assay: Test A pre-/postemergence plant response
Excerpt: as §2, §3

[8] = test system: barnyardgrass (Echinochloa crus-galli); assay: Test A pre-/postemergence plant response
Excerpt: as §2, §3

[9] = test system: velvetleaf (Abutilon theophrasti); assay: Test A pre-/postemergence plant response
Excerpt: as §2, §3

[10] = test system: wheat (Triticum aestivum); assay: Test A pre-/postemergence plant response
Excerpt: as §2, §3

[11] = test system: large crabgrass (Digitaria sanguinalis); assay: Test A pre-/postemergence plant response
Excerpt: as §2, §3

[12] = test system: morningglory (Ipomoea spp.); assay: Test A pre-/postemergence plant response
Excerpt: as §2, §3

[13] = 62 g ai/ha, scale of 0 to 100 where 0 is no effect and 100 is complete control
[14] = 125 g ai/ha, scale 0 to 100, 0 is no effect, 100 is complete control
[15] = Postemergence, 125 g ai/ha, 0 to 100 scale where 0 is no effect and 100 is complete control
[16] = Postemergence, 500 g ai/ha, 0 to 100 scale, 0 = no effect, 100 = complete control, approx. ten days
[17] = Preemergence, 125 g ai/ha, 0 to 100 scale, 0 = no effect, 100 = complete control
[18] = Preemergence, 500 g ai/ha, visual injury, 0 to 100 scale (0 no effect, 100 complete control), approx. ten days

`CCCc1ncc(C(=O)C2=C(O)CCCC2=O)c(=O)n1Cc1cccc(OC(F)(F)F)c1` [Compound 105] was tested, and the “Plant response rating, Flood, Ducksalad” value [1] was 0, the “Plant response rating, Ducksalad” value [1, 13] was 0 and the “Plant response rating, Ducksalad” value [1, 14] was 0. For the same molecule, the “Ducksalad plant response rating” value [1] was 0, the “Plant response rating, Flood, Rice” value [2] was 0 and the “Plant response rating, Rice” value [2, 13] was 0. For the same molecule, the “Plant response rating, Rice” value [2, 14] was 0, the “Rice plant response rating” value [2] was 0 and the “Plant response rating, Flood, Sedge, Umbrella” value [3] was 0. For the same molecule, the “Plant response rating, Sedge, Umbrella” value [3, 13] was 0, the “Plant response rating, Sedge, Umbrella” value [3, 14] was 0 and the “Sedge, Umbrella plant response rating” value [3] was 0. The “Plant response rating, Flood, Barnyardgrass” value [4] was 0, the “Plant response rating, Barnyardgrass” value [4, 13] was 0 and the “Plant response rating, Barnyardgrass” value [4, 14] was 0. For the same molecule, the “Barnyardgrass plant response rating” value [4] was 0, the “Plant response rating, Corn” value [5, 15] was 0 and the “Plant response rating, Corn” value [5, 16] was 10. For the same molecule, the “Plant response rating, Corn” value [5, 17] was 0, the “Plant response rating, Corn” value [5, 18] was 0 and the “Plant response rating, Foxtail, Giant” value [6, 15] was 0. The “Plant response rating, Foxtail, Giant” value [6, 16] was 20, the “Plant response rating, Foxtail, Giant” value [6, 17] was 30 and the “Plant response rating, Foxtail, Giant” value [6, 18] was 50. For the same molecule, the “Plant response rating, Pigweed” value [7, 15] was 90, the “Plant response rating, Pigweed” value [7, 16] was 100 and the “Plant response rating, Pigweed” value [7, 17] was 80. For the same molecule, the “Plant response rating, Pigweed” value [7, 18] was 90, the “Plant response rating, Barnyardgrass” value [8, 15] was 20 and the “Plant response rating, Barnyardgrass” value [8, 16] was 50. For the same molecule, the “Plant response rating, Barnyardgrass” value [8, 17] was 0, the “Plant response rating, Barnyardgrass” value [8, 18] was 0 and the “Plant response rating, Velvetleaf” value [9, 15] was 100. The “Plant response rating, Velvetleaf” value [9, 16] was 100, the “Plant response rating, Velvetleaf” value [9, 17] was 0 and the “Plant response rating, Velvetleaf” value [9, 18] was 70. For the same molecule, the “Plant response rating, Wheat” value [10, 15] was 0, the “Plant response rating, Wheat” value [10, 16] was 0 and the “Plant response rating, Wheat” value [10, 17] was 0. For the same molecule, the “Plant response rating, Wheat” value [10, 18] was 0, the “Plant response rating, Crabgrass, Large” value [11, 15] was 20 and the “Plant response rating, Crabgrass, Large” value [11, 16] was 70. The “Plant response rating, Crabgrass, Large” value [11, 17] was 30, the “Plant response rating, Crabgrass, Large” value [11, 18] was 50 and the “Plant response rating, Morningglory” value [12, 15] was 10. The “Plant response rating, Morningglory” value [12, 16] was 80 and the “Plant response rating, Morningglory” value [12, 17] was 0.
`O=C1CCCC(O)=C1C(=O)c1cnc(C2CCCCC2)n(-c2ccccc2)c1=O` [Compound 106] was tested, and the “Plant response rating, Flood, Ducksalad” value [1] was 0, the “Plant response rating, Ducksalad” value [1, 13] was 0 and the “Plant response rating, Ducksalad” value [1, 14] was 0. The “Ducksalad plant response rating” value [1] was 0, the “Plant response rating, Flood, Rice” value [2] was 20 and the “Plant response rating, Rice” value [2, 13] was 0. The “Plant response rating, Rice” value [2, 14] was 20, the “Rice plant response rating” value [2] was 0 and the “Plant response rating, Flood, Sedge, Umbrella” value [3] was 0. For the same molecule, the “Plant response rating, Sedge, Umbrella” value [3, 13] was 0, the “Plant response rating, Sedge, Umbrella” value [3, 14] was 0 and the “Sedge, Umbrella plant response rating” value [3] was 0. The “Plant response rating, Flood, Barnyardgrass” value [4] was 15, the “Plant response rating, Barnyardgrass” value [4, 13] was 0 and the “Plant response rating, Barnyardgrass” value [4, 14] was 0. The “Barnyardgrass plant response rating” value [4] was 0, the “Plant response rating, Corn” value [5, 15] was 0 and the “Plant response rating, Corn” value [5, 16] was 10. For the same molecule, the “Plant response rating, Corn” value [5, 17] was 0, the “Plant response rating, Corn” value [5, 18] was 0 and the “Plant response rating, Foxtail, Giant” value [6, 15] was 20. For the same molecule, the “Plant response rating, Foxtail, Giant” value [6, 16] was 60, the “Plant response rating, Foxtail, Giant” value [6, 17] was 40 and the “Plant response rating, Foxtail, Giant” value [6, 18] was 70. The “Plant response rating, Pigweed” value [7, 15] was 80, the “Plant response rating, Pigweed” value [7, 16] was 100 and the “Plant response rating, Pigweed” value [7, 17] was 80. The “Plant response rating, Pigweed” value [7, 18] was 90, the “Plant response rating, Barnyardgrass” value [8, 15] was 10 and the “Plant response rating, Barnyardgrass” value [8, 16] was 50. The “Plant response rating, Barnyardgrass” value [8, 17] was 10, the “Plant response rating, Barnyardgrass” value [8, 18] was 50 and the “Plant response rating, Velvetleaf” value [9, 15] was 100. The “Plant response rating, Velvetleaf” value [9, 16] was 100, the “Plant response rating, Velvetleaf” value [9, 17] was 40 and the “Plant response rating, Velvetleaf” value [9, 18] was 60. The “Plant response rating, Wheat” value [10, 15] was 0, the “Plant response rating, Wheat” value [10, 16] was 0 and the “Plant response rating, Wheat” value [10, 17] was 0. For the same molecule, the “Plant response rating, Wheat” value [10, 18] was 0, the “Plant response rating, Crabgrass, Large” value [11, 15] was 40 and the “Plant response rating, Crabgrass, Large” value [11, 16] was 70. For the same molecule, the “Plant response rating, Crabgrass, Large” value [11, 17] was 70, the “Plant response rating, Crabgrass, Large” value [11, 18] was 80 and the “Plant response rating, Morningglory” value [12, 15] was 100. The “Plant response rating, Morningglory” value [12, 16] was 100, the “Plant response rating, Morningglory” value [12, 17] was 50 and the “Plant response rating, Morningglory” value [12, 18] was 80.
